Test results as given in publication PMC7156458, “Synthetic biology based construction of biological activity-related library of fungal decalin-containing diterpenoid pyrones” (Nature Communications, 2020).

Biological target: Aβ42 (Homo sapiens, UniProt P05067)
Test: Th-T (thioflavin-T) assay of Aβ42 aggregation
Type: biochemical
Conditions: for Th-T fluorescence, mean of three wells: compound at 50

Chain of Aβ42 (P05067 672-713): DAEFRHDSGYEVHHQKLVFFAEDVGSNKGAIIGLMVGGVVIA

**Q.** What does the source list for C=C1CCC2C(C)(CCC=C(C)C)C(O)CCC2(C)C1Cc1c(OC)oc(CO)c(C(=O)OC)c1=O (stereo not drawn) [Compound 13]?
**A.** Th-T fluorescence, mean of three wells (reading M54 of time course): 0.4653; Th-T fluorescence, mean of three wells (reading M55 of time course): 0.4661; Th-T fluorescence, mean of three wells (reading M56 of time course): 0.4654; Th-T fluorescence, mean of three wells (reading M57 of time course): 0.4695; Th-T fluorescence, mean of three wells (reading M58 of time course): 0.4698; Th-T fluorescence, mean of three wells (reading M59 of time course): 0.4665; Th-T fluorescence, mean of three wells (reading M60 of time course): 0.4689; Th-T fluorescence, mean of three wells (reading M61 of time course): 0.471; Th-T fluorescence, mean of three wells (reading M62 of time course): 0.4707; Th-T fluorescence of Aβ42 with compound, mean of three wells (Fig. 7a source data) (concentration 10, unit not given, time-course reading M129): 1.537; Th-T fluorescence of Aβ42 with compound, mean of three wells (Fig. 7a source data) (concentration 10, unit not given, time-course reading M130): 1.546; Th-T fluorescence of Aβ42 with compound, mean of three wells (Fig. 7a source data) (concentration 10, unit not given, time-course reading M131): 1.547; Th-T fluorescence of Aβ42 with compound, mean of three wells (Fig. 7a source data) (concentration 10, unit not given, time-course reading M132): 1.542; Th-T fluorescence of Aβ42 with compound, mean of three wells (Fig. 7a source data) (concentration 10, unit not given, time-course reading M133): 1.541; Th-T fluorescence of Aβ42 with compound, mean of three wells (Fig. 7a source data) (concentration 10, unit not given, time-course reading M134): 1.54; Th-T fluorescence of Aβ42 with compound, mean of three wells (Fig. 7a source data) (concentration 10, unit not given, time-course reading M135): 1.5371; Th-T fluorescence of Aβ42 with compound, mean of three wells (Fig. 7a source data) (concentration 10, unit not given, time-course reading M136): 1.543; Th-T fluorescence of Aβ42 with compound, mean of three wells (Fig. 7a source data) (concentration 10, unit not given, time-course reading M137): 1.53; Th-T fluorescence of Aβ42 with compound, mean of three wells (Fig. 7a source data) (concentration 10, unit not given, time-course reading M138): 1.542; Th-T fluorescence of Aβ42 with compound, mean of three wells (Fig. 7a source data) (concentration 10, unit not given, time-course reading M139): 1.54; Th-T fluorescence of Aβ42 with compound, mean of three wells (Fig. 7a source data) (concentration 10, unit not given, time-course reading M140): 1.544; Th-T fluorescence of Aβ42 with compound, mean of three wells (Fig. 7a source data) (concentration 10, unit not given, time-course reading M141): 1.531; Th-T fluorescence of Aβ42 with compound, mean of three wells (Fig. 7a source data) (concentration 10, unit not given, time-course reading M142): 1.539; Th-T fluorescence of Aβ42 with compound, mean of three wells (Fig. 7a source data) (concentration 10, unit not given, time-course reading M143): 1.544; Th-T fluorescence of Aβ42 with compound, mean of three wells (Fig. 7a source data) (concentration 10, unit not given, time-course reading M144): 1.537; Th-T fluorescence of Aβ42 with compound, mean of three wells (Fig. 7a source data) (concentration 10, unit not given, time-course reading M145): 1.534; Th-T fluorescence of Aβ42 with compound, mean of three wells (Fig. 7a source data) (concentration 20, unit not given, time-course reading M129): 1.025; Th-T fluorescence of Aβ42 with compound, mean of three wells (Fig. 7a source data) (concentration 20, unit not given, time-course reading M130): 1.025; Th-T fluorescence of Aβ42 with compound, mean of three wells (Fig. 7a source data) (concentration 20, unit not given, time-course reading M131): 1.024; Th-T fluorescence of Aβ42 with compound, mean of three wells (Fig. 7a source data) (concentration 20, unit not given, time-course reading M132): 1.024; Th-T fluorescence of Aβ42 with compound, mean of three wells (Fig. 7a source data) (concentration 20, unit not given, time-course reading M133): 1.026; Th-T fluorescence of Aβ42 with compound, mean of three wells (Fig. 7a source data) (concentration 20, unit not given, time-course reading M134): 1.029; Th-T fluorescence of Aβ42 with compound, mean of three wells (Fig. 7a source data) (concentration 20, unit not given, time-course reading M135): 1.025; Th-T fluorescence of Aβ42 with compound, mean of three wells (Fig. 7a source data) (concentration 20, unit not given, time-course reading M136): 1.027; Th-T fluorescence of Aβ42 with compound, mean of three wells (Fig. 7a source data) (concentration 20, unit not given, time-course reading M137): 1.027; Th-T fluorescence of Aβ42 with compound, mean of three wells (Fig. 7a source data) (concentration 20, unit not given, time-course reading M138): 1.029; Th-T fluorescence of Aβ42 with compound, mean of three wells (Fig. 7a source data) (concentration 20, unit not given, time-course reading M139): 1.029; Th-T fluorescence of Aβ42 with compound, mean of three wells (Fig. 7a source data) (concentration 20, unit not given, time-course reading M140): 1.019; Th-T fluorescence of Aβ42 with compound, mean of three wells (Fig. 7a source data) (concentration 20, unit not given, time-course reading M141): 1.021; Th-T fluorescence of Aβ42 with compound, mean of three wells (Fig. 7a source data) (concentration 20, unit not given, time-course reading M142): 1.024; Th-T fluorescence of Aβ42 with compound, mean of three wells (Fig. 7a source data) (concentration 20, unit not given, time-course reading M143): 1.022; Th-T fluorescence of Aβ42 with compound, mean of three wells (Fig. 7a source data) (concentration 20, unit not given, time-course reading M144): 1.02; Th-T fluorescence of Aβ42 with compound, mean of three wells (Fig. 7a source data) (concentration 20, unit not given, time-course reading M145): 1.019; Th-T fluorescence of Aβ42 with compound, mean of three wells (Fig. 7a source data) (concentration 50, unit not given, time-course reading M129): 0.475; Th-T fluorescence of Aβ42 with compound, mean of three wells (Fig. 7a source data) (concentration 50, unit not given, time-course reading M130): 0.4748; Th-T fluorescence of Aβ42 with compound, mean of three wells (Fig. 7a source data) (concentration 50, unit not given, time-course reading M131): 0.479; Th-T fluorescence of Aβ42 with compound, mean of three wells (Fig. 7a source data) (concentration 50, unit not given, time-course reading M132): 0.4776; Th-T fluorescence of Aβ42 with compound, mean of three wells (Fig. 7a source data) (concentration 50, unit not given, time-course reading M133): 0.4741; Th-T fluorescence of Aβ42 with compound, mean of three wells (Fig. 7a source data) (concentration 50, unit not given, time-course reading M134): 0.4743; Th-T fluorescence of Aβ42 with compound, mean of three wells (Fig. 7a source data) (concentration 50, unit not given, time-course reading M135): 0.479; Th-T fluorescence of Aβ42 with compound, mean of three wells (Fig. 7a source data) (concentration 50, unit not given, time-course reading M136): 0.4773; Th-T fluorescence of Aβ42 with compound, mean of three wells (Fig. 7a source data) (concentration 50, unit not given, time-course reading M137): 0.4745; Th-T fluorescence of Aβ42 with compound, mean of three wells (Fig. 7a source data) (concentration 50, unit not given, time-course reading M138): 0.4775; Th-T fluorescence of Aβ42 with compound, mean of three wells (Fig. 7a source data) (concentration 50, unit not given, time-course reading M139): 0.4782; Th-T fluorescence of Aβ42 with compound, mean of three wells (Fig. 7a source data) (concentration 50, unit not given, time-course reading M140): 0.4767; Th-T fluorescence of Aβ42 with compound, mean of three wells (Fig. 7a source data) (concentration 50, unit not given, time-course reading M141): 0.4755; Th-T fluorescence of Aβ42 with compound, mean of three wells (Fig. 7a source data) (concentration 50, unit not given, time-course reading M142): 0.4776
